The values that follow come from patent publication US9346759B2, “Polymorphic crystal forms of 5-(2-{[6-(2,2-difluoro-2-phenylethoxy)hexyl]amino}-1-(R)-hydroxyethyl)-8-hydroxyquinolin-2(1H)-one, heminapadisytlate as agonist of the β2 adrenergic receptor” (ALMIRALL, S.A., priority 2012, dated 2016).

The data set in a line: Aerodynamic assessment of fine particles of the inhalation powder composition (modified Anderson Cascade Impactor, Genuair inhaler). The format is physicochemical. As to conditions: dry powder blend of the polymorph with lactose carrier, no additive material, ACI 60 L/min, fine particles <5 μm, HPLC. The text has this: The process for manufacturing the pharmaceutical composition comprising a polymorphic salt of compound (I) (Type α, Type β or Hydrate) and a carrier is as follows: • 1. 20% by weight of lactose used as a carrier was blended with one polymorph (Type α, Type β or Hydrate). The resulting mixture was sieved and mixed again. • 2. The remaining 80% by weight of lactose was sieved and added to the mixture of Step 1. The whole mixture was blended, sieved and blended again resulting in the final inhalation powder blend.
The test on the aerodynamic assessment of the fine particles (FPD<5 μm) of the inhalation powder composition is carried out in combination with the Genuair® inhaler. The Fine Particle Fraction of the three formulations was calculated on basis of the principles of the aerodynamic assessment of fine particles according to the Current European pharmacopoeia (Ph. Eur. Chapter 2.9.18) and USP<601> by the aid of aerodynamic impactor analyses using a modified Anderson Cascade Impactor (ACI), 60 L/min-configuration including pre-separator, stage-1, -0, and stage 1-7 (filter stage). The content of the active ingredient on each stage of the impactor is determined my means of HPLC.
The fine particle dose (FPD<5 μm) is calculated based on Ph. Eur. Chapter 2.9.18 and USP<601> by point to point interpolation per dosage. […]
To obtain the Fine Particle Dose, the cumulative percent value (y-value) at which the line of data plot crosses 5 μm mark is determined. […] FPD [μg]=yFPD·F/100% • FPD=Fine particle dose<5 μm of the active ingredient per dosage [μg]. • yFPD=y-value of cumulative percentage of mass at a particle size of 5 μm evaluated by linear point to point interpolation [%]. • F=sum of mass on stage-1-stage 7 (filter) per dosage [μg].
The Fine Particle Fraction (FPF) is the percentage of the emitted dose that the Fine Particel Dose represents and is calculated as follows: FPF [%]=(FPD [μg]/Total sum [μg])*100 • Total sum=the amount of drug substance in the respective impactor (Adapter-Filter).

For the compound `O=c1ccc2c([C@@H](O)CNCCCCCCOCC(F)(F)c3ccccc3)ccc(O)c2[nH]1` [Comparative Example, 5-(2-{[6-(2,2-difluoro-2-phenylethoxy)hexyl]amino}-1(R)-hydroxyethyl)-8-hydroxyquinolin-2(1H)-one, heminapadisylate, reference compound], the “FPF (%)” value was found to be 42.2%.
For the compound `O=c1ccc2c([C@@H](O)CNCCCCCCOCC(F)(F)c3ccccc3)ccc(O)c2[nH]1` [Polymorph Type β, 5-(2-{[6-(2,2-difluoro-2-phenylethoxy)hexyl]amino}-1(R)-hydroxyethyl)-8-hydroxyquinolin-2(1H)-one, heminapadisylate], the “FPF (%)” value is 49.3%.
In the case of `O=c1ccc2c([C@@H](O)CNCCCCCCOCC(F)(F)c3ccccc3)ccc(O)c2[nH]1` [Polymorph Hydrate, 5-(2-{[6-(2,2-difluoro-2-phenylethoxy)hexyl]amino}-1(R)-hydroxyethyl)-8-hydroxyquinolin-2(1H)-one, heminapadisylate, hemihydrate], the “FPF (%)” value (hemihydrate) stood at 49.8%.
